The values below come from the METLIN SMRT retention time set (Domingo-Almenara et al. 2019).

The nature of the data set: gradient 5% acetonitrile 3 min, to 50% in 2 min, to 85% in 15 min, held 3 min, 100 µL/min. To be noted: column: Zorbax Extend-C18 2.1 x 50 mm; eluents: water / acetonitrile, 0.1% formic acid. The procedure, abridged:
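Over 3 months, pure standards in mixtures of ~100 molecules were run by HPLC coupled to a quadrupole time-of-flight mass spectrometer in positive and negative ionization mode. The column was a Zorbax Extend-C18 (2.1 × 50 mm, 1.8 μm) at 100 μL/min, eluted with water and acetonitrile each holding 0.1% formic acid, with 40 μL dead and 900 μL dwell volumes. Retention time was determined from adduct peaks chosen by software and checked manually.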
In turn, `CCn1c(=O)c2cc(C(=O)Nc3ccc(OC)c(OC)c3)nn2c2ccccc21` gave an RP-LC retention time of 837 s.
The same measure for `NC(=O)C1CCN(C(=O)C2COC3(CCCCC3)N2C(=O)c2ccccc2)CC1` (stereo not given): 606 s.
The same measure for `Cn1cnc(S(=O)(=O)N2CC(n3cc(C(=O)N4CCOCC4)nn3)C2)c1`: 575 s; for `COCCCNC(=O)Cn1ccc2c(SCc3ccccc3)nccc21`: 636 s; for `COc1ccc(NS(=O)(=O)c2cc3n(c2)CCN(C)C3=O)cc1Cl`: 696 s.
Molecule `CC1=C(c2ccc(C)cc2)S(=O)(=O)N=C1N1CCCN(C(=O)c2cccs2)CC1` came in with an RP-LC retention time of 836 s.
The same measure for `CC(C)C(=O)N1CCC(Cc2noc(C3CC3)n2)C1` (stereo not given): 692 s; for `Cc1ccc2[nH]c(=O)c(CCC(=O)NC(C)c3cn(C)nc3C)cc2c1` (stereo not given): 618 s.
For the molecule `COc1cc(OC)cc(-c2nc(-c3cn(Cc4ccc(C)cc4)nn3)no2)c1`, the RP-LC retention time came to 1090 s.
The same measure for `Cc1cc(C2CCCN2C(=O)Cc2ccccc2F)no1` (stereo not given): 723 s; for `COC(=O)c1c(C)[nH]c(C(=O)N2CCCC(C(=O)N(C)Cc3ccco3)C2)c1C` (stereo not given): 726 s; for `CCc1ccc(N2C(=O)CC(N3CCC(C(N)=O)CC3)C2=O)cc1` (stereo not given): 593 s.
The same measure for `Cn1c(=O)c(SCC(=O)NCCCc2ccccc2)nc2ccccc21`: 840 s.
The same measure for `O=C(c1cccc(F)c1)N1CCN(C(=O)c2nsc3ccccc23)CC1`: 760 s.
For `O=C(Cn1nc2c(cc1=O)CCCC2)Nc1nc(-c2ccncc2)cs1`, the RP-LC retention time is 606 s.
Turning to `CC(C)CCNC(=O)C1(C)CCc2ccccc2C(=O)N1CCc1c[nH]c2ccccc12` (stereo not given), the RP-LC retention time came to 950 s.
In the case of `COc1ccc(CNC(=O)C2CCCN(c3nnc4ccc(C(F)(F)F)cn34)C2)cc1` (stereo not given) it was 783 s; in that of `CCOc1ccc(-c2noc(Cn3ccn4nc(-c5ccccc5C)cc4c3=O)n2)cc1`, 1160 s.
In the case of `CCCS(=O)(=O)NCc1ccc2c(c1)CCN2C(=O)CC(C)C` it was 862 s.
Regarding `c1ccc(-c2cn3ccccc3n2)cc1`, the RP-LC retention time worked out at 644 s.
As to `O=C(NCCc1csc(-c2cccs2)n1)C1CCN(S(=O)(=O)c2ccccc2)CC1`, the RP-LC retention time amounted to 889 s.
In the case of `CCOC(=O)C(NC(=O)Nc1c(-c2cccc(C)c2)nc2ccccn12)C(C)C` (stereo not given) it was 690 s; in that of `CCCN1C(=O)C2(c3cc(Br)ccc31)c1[nH]c3ccccc3c1CCN2C(C)=O` (stereo not given), 924 s.
Take `CCOC(=O)CC(=O)CSc1ccc2nnc(-c3cccs3)n2n1`: the RP-LC retention time is 671 s.
The same measure for `CCn1cnc(S(=O)(=O)N2CCCC(C(=O)Nc3cccc(F)c3)C2)c1` (stereo not given): 760 s; for `CC1CN(c2ccc(Br)cc2)c2nc3c(c(=O)n(CCCO)c(=O)n3C)n2C1` (stereo not given): 833 s.
In the case of `Cc1ccc(CNC(=O)C2CCN(Cc3cc4ccccc4n3Cc3cccc(Cl)c3)CC2)o1` it was 943 s; in that of `COc1cc(CN2C[C@@H]3C(=O)N(C)C(=O)[C@@H]3C2)cc(OC)c1`, 585 s; in that of `COCCC1CCN(C(=O)CN(C)C(=O)Cc2c(C)noc2C)CC1`, 627 s.
The same measure for `Cc1ccc(NC(=O)c2nc3nc(C)cc(C(F)F)n3n2)c(C)c1`: 854 s; for `COc1ccc(-c2ccc3nc(N4CCC(C(=O)O)CC4)sc3n2)cc1`: 825 s; for `Cc1ccc(C2c3[nH]c4ccccc4c3CCN2C(=O)C2CCC2)cc1` (stereo not given): 1200 s.
`CCN(CC)c1ccc(-c2noc(CN3CCN(c4ccccn4)CC3)n2)cn1` showed an RP-LC retention time of 575 s.
In the case of `CCOc1ccc2c(n1)CCN(C(=O)NC1CCCCC1)C2` it was 822 s; in that of `Cc1ccc(-c2ncccc2CNS(=O)(=O)c2cccc(C)c2)cc1`, 726 s; in that of `O=C1CC(c2noc(-c3cccc(F)c3)n2)CN1c1ccc(Cl)cc1` (stereo not given), 1080 s.
In the case of `CCc1ccc(NC(=O)Cn2nc3c(N(C)C4CCCCC4)nccn3c2=O)cc1` it was 823 s; in that of `CC(C)c1noc(-c2ccc(-n3cnc(C(=O)N4CCSCC4)c3)nc2)n1`, 863 s; in that of `CSc1cccc(NC(=O)Cn2c(-c3ccccc3)nc(C)cc2=O)c1`, 1050 s.
As to `O=C1CCCCC(CNC(=O)c2n[nH]c(=O)c3ccccc23)N1` (stereo not given), the RP-LC retention time worked out at 604 s.
The same measure for `COC1CCC12CCN(C(=O)c1cnccn1)CC2` (stereo not given): 657 s; for `COc1ccc(-c2cc3c(=O)n(CC(=O)NCC4CCCO4)ncn3n2)cc1` (stereo not given): 720 s.
`O=C(Cc1ccsc1)Nc1ccc(-c2nnc3n2CCCC3)cc1` returned an RP-LC retention time of 648 s.
`Cc1n[nH]c(C)c1CCC(=O)NCc1c(F)cccc1F` had an RP-LC retention time of 526 s.
In the case of `CCc1nn2c(CNC(=O)c3cccc(C)c3)c(-c3ccccc3)nc2s1` it was 936 s; in that of `OCCN1CCN(c2ncnc3c2cnn3-c2ccc(Cl)cc2)CC1`, 650 s; in that of `Cc1ccc2nc(NC(=O)Cn3c(=O)n(C(C)C)c4ccc(-c5noc(C)n5)cc43)sc2c1`, 948 s.
The same measure for `O=C(c1ccccn1)N1CCCCC1c1nncn1CC1CC1` (stereo not given): 608 s.
On to `CC1=C(c2ccc(C)cc2)S(=O)(=O)N=C1N1CCCN(C(=O)Cn2ccnc2C)CC1`, for which the RP-LC retention time is 616 s.
The same measure for `Cc1c(CC(=O)N2CCC(C(N)=O)CC2)c(=O)oc2cc3occ(-c4ccc(F)cc4)c3cc12`: 768 s; for `Cc1cccc(NC(=O)CSc2nnc3c4cc(-c5ccc(C)c(C)c5)nn4ccn23)c1`: 989 s.
In the case of `Cc1ccc(-c2noc(C3CCCN3S(=O)(=O)c3ccc(C)c(C)c3)n2)cc1` (stereo not given) it was 1260 s.
`COc1ccc(S(=O)(=O)N2C[C@H]3CN(C(=O)NCC(C)C)C[C@@H](C2)O3)cc1` showed an RP-LC retention time of 729 s.
On to `O=c1c2ccccc2n(Cc2nc(-c3cccc(Cl)c3)no2)c(=O)n1CC1CCCO1` (stereo not given), for which the RP-LC retention time came to 1110 s.
Molecule `COc1cccc(CNC2=NCCNC23CCN(S(=O)(=O)c2ccc(C)c(C)c2)CC3)c1` yielded an RP-LC retention time of 775 s.
In turn, `O=C(c1ccc2nc[nH]c2c1)N1CCN(c2cc(-c3cccs3)[nH]n2)CC1` gave an RP-LC retention time of 594 s.
`CCC(CC)C(=O)Nc1nc(-c2ccc3c(c2)N(C)C(=O)C(C)O3)cs1` (stereo not given) came in with an RP-LC retention time of 992 s.
On to `CCCn1nnc(NCc2ccc(-c3ccc(C)c(Cl)c3)o2)n1`, for which the RP-LC retention time worked out at 1130 s.
Molecule `O=S(=O)(c1cc(-c2ccno2)cs1)N(CCc1ccccc1)Cc1ccccc1` returned an RP-LC retention time of 1200 s.
The same measure for `CC(=O)N1c2ccc(S(=O)(=O)N3CCCCC3)cc2CC1C(=O)NCCc1ccccc1` (stereo not given): 868 s.
The same measure for `Cc1nc2cc(-c3noc(CNC(=O)Cc4ccc(Cl)cc4)n3)ccc2o1`: 858 s; for `COCc1cn(C2CN(C(=O)c3ccc(OC)nc3)C2)nn1`: 610 s; for `O=C(NCCCN1CCc2ccccc2C1)C1CCCN(c2nnc(-n3cccc3)s2)C1` (stereo not given): 593 s.
In the case of `CC(=O)Nc1ccc(-c2noc(C3CCN(C(=O)c4ccc(Br)cc4)CC3)n2)cc1` it was 841 s.
In turn, `CCc1nc2ccccc2c(=O)n1Cc1noc(-c2cncc(Br)c2)n1` returned an RP-LC retention time of 896 s.
Molecule `CCn1nccc1-c1cccc(-c2noc(-c3ccc(C#N)cc3)n2)c1` came in with an RP-LC retention time of 1140 s.
`Cc1cc(C)c2c(N3CCSCC3)nc(C(=O)N3CCCC3)nc2n1` came in with an RP-LC retention time of 617 s.
Take `COc1c(C(=O)Nc2ccc3c(c2)OCO3)sc2cc(Cl)ccc12`: the RP-LC retention time was found to be 1180 s.
The same measure for `COC(=O)c1ccc2c(=O)n(Cc3ccc(OC)cc3)c(N3CCOCC3)nc2c1`: 943 s.
The same measure for `COc1ccc(-c2ncc3c(n2)CCN(S(=O)(=O)c2ccc(OC)c(Cl)c2)C3)cc1`: 1080 s; for `COc1ccc(-c2noc(CN3C(=O)COc4cc(C(C)(C)C)ccc43)n2)cc1OC`: 1110 s; for `O=C(NCCc1csc(-c2ccccc2)n1)[C@H]1CCCN1C(=O)c1ccc(F)cc1`: 812 s.
In the case of `CC(C)=CCN1CCC2(CCc3ccccc32)CC1` it was 775 s.
Molecule `CCSc1ccccc1C(=O)NCc1nc(COc2ccc(OC)cc2)no1` had an RP-LC retention time of 848 s.
In the case of `CN(Cc1ccccc1)C(=O)c1ccc2c(c1)N(CC(=O)N1CCCC1)C(=O)CO2` it was 723 s.
In the case of `O=C1N=C(N2CCOCC2)S/C1=C/c1ccc(-c2ccccc2Br)o1` it was 872 s; in that of `CCn1c(=O)sc2cc(S(=O)(=O)N3CCC(C(=O)Nc4ncccc4C)CC3)ccc21`, 666 s; in that of `O=c1c2ccccc2ncn1Cc1noc(Cc2ccc(Br)cc2)n1`, 871 s.
The same measure for `COc1ccc(OC)c(Nc2c(-c3ccccc3)nc3cnccn23)c1`: 839 s; for `Cn1c(NC(=O)c2cccc([N+](=O)[O-])c2)c(-c2cccs2)c(=O)c2ccccc21`: 701 s.
